Patent publication US5567725A, “Substituted cyclohexanol esters, their use for treating diseases, and pharmaceutical preparations” (Hoechst Aktiengesellschaft, priority 1994, dated 1996)

Target: T1, glucose-6-phosphatase system (Rattus norvegicus, UniProt F7EWB7)
T1 construct: from tissue; host or cells: liver microsomes, male Wistar rats
T1 sequence (F7EWB7 1-429): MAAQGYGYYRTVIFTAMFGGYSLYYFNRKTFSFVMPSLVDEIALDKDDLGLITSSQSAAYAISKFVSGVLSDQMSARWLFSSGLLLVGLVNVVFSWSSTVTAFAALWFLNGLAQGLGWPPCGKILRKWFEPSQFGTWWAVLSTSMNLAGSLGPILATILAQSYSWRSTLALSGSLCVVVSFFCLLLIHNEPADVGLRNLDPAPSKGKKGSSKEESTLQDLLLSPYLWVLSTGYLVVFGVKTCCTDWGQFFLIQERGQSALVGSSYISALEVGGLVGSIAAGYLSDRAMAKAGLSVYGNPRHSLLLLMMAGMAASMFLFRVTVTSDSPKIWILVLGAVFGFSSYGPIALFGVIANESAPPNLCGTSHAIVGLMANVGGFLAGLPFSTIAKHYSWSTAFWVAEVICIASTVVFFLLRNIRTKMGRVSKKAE
Assay: enzyme test using liver microsomes: phosphate liberated from glucose-6-phosphate
Type: biochemical, male Wistar rats
Conditions: rat liver microsome fraction; glucose-6-phosphate 1 mmol/l; HEPES pH 7.0; room temperature, 20 minutes
Procedure: The effect of the novel compounds on the glucose-6-phosphatase system was investigated in an enzyme test using liver microsomes.
0.1 ml of test mixture contained glucose-6-phosphate (1mmol/l), the test substance, 0.1 mg of microsome fraction and 100 mmol/l HEPES buffer (4-(2-hydroxyethyl)piperazine-1-ethanesulfonic acid), pH 7.0. The reaction was started by adding the enzyme. After proceeding at room temperature for 20 minutes, the reaction was stopped by adding 0.2 ml of phosphate reagent. The sample was incubated at 37° C. for 30 minutes and the absorption (A) of the blue color was then measured at 570 nm.
Work on `O=C(/C=C(/c1ccccc1)n1cnc2ccccc21)O[C@@H]1C[C@](OC[C@@H]2C[C@@H]2c2ccc(Cl)cc2)(C(=O)NS(=O)(=O)c2ccc3ccccc3c2)C[C@@H](O)[C@H]1O` [Compound 9] yielded an IC50 of 300 nM.
With `CS(=O)(=O)NC(=O)C1(OCC2CC2c2ccc(Cl)cc2)CC(O)C(O)C(OC(=O)C=C(c2ccccc2)n2cnc3ccccc32)C1` (stereo not shown) [Compound 4] the IC50 was 20 nM.
For `O=C(/C=C(/c1ccccc1)n1cnc2ccccc21)O[C@@H]1C[C@](OC[C@@H]2C[C@@H]2c2ccc(Cl)cc2)(c2nnn[nH]2)C[C@@H](O)[C@H]1O` [Compound 19], the IC50 was 800 nM.

Test system: glucose-6-phosphatase
Assay: not given
Conditions: literature statement; cited from earlier work
In the case of `CC(=O)Oc1ccccc1C=Cc1ccccc1N=C=S` [2-isothiocyanato-2'-acetoxystilbene], the “inhibition of glucose-6-phosphatase (in words)” value (shortened to “inhibition”) is given as “non-specific inhibitors”.
For `O=C(O)c1cc(SSc2ccc([N+](=O)[O-])c(C(=O)O)c2)ccc1[N+](=O)[O-]` [5,5'-dithiobis-2-nitrobenzoic acid], the “inhibition” value is given as “non-specific inhibitors”.
In the case of `O=C(CCc1ccc(O)cc1)c1c(O)cc(O)cc1O[C@@H]1O[C@H](CO)[C@@H](O)[C@H](O)[C@H]1O` [phlorrhizin], the “inhibition” value is listed as “non-specific inhibitors”.
For `S=C=Nc1ccccc1C=Cc1ccccc1N=C=S` [2,2'-diisothiocyanatostilbene], the “inhibition” value is given as “non-specific inhibitors”.
